Experimental data taken from patent US20100022491A1, “4-HYDROXY-2-OXO-2,3-DIHYDRO-1,3-BENZOTHIAZOL-7YL COMPOUNDS FOR MODULATION OF B2-ADRENORECEPTOR ACTIVITY” (ASTRAZENECA AB, priority 2006, published 2010).
Structures can show the parent of a compound that is named as a salt.

Legend:
[1] = target: T1, recombinant human adrenergic beta 1 receptors (Homo sapiens, UniProt P08588); assay: Adrenergic β1 selectivity binding assay ([125I]-Iodocyanopindolol); conditions: inhibition of [125I]-Iodocyanopindolol (0.036 nM) binding; read-out: β1 bind p IC50 (converted)
T1 construct: purchased Euroscreen
T1 sequence (P08588 whole entry): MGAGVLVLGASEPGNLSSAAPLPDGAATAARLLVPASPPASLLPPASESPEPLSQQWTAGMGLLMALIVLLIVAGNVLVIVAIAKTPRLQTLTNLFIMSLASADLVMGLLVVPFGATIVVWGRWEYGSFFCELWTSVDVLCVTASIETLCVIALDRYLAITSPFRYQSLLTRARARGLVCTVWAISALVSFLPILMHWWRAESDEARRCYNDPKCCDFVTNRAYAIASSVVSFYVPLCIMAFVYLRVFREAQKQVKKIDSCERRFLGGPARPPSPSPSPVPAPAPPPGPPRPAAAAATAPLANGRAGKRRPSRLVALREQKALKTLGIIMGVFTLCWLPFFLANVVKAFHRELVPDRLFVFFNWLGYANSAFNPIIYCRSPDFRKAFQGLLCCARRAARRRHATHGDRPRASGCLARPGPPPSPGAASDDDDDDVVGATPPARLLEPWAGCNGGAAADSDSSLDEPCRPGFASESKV
Method in brief: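 Recombinant human β1 membranes in HEPES buffer pH 7.4 with 120 mM NaCl were incubated 2 hours at room temperature with 0.036 nM [^125I]-Iodocyanopindolol. Nonspecific binding defined by 10 μM propranolol; bound radioactivity counted after filtration. pIC50 from four-parameter logistic fit.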

Adrenergic β2 = target: T2, Adrenergic β2 (Homo sapiens, UniProt P07550); assay: Adrenergic β2 mediated cAMP production in H292 cells; type: cell-based; conditions: for EC50: H292 cells, cAMP by AlphaScreen, 60 minutes at room temperature, rolipram 300 μM, read-out: β2 pEC50 (converted); for β2 Int Act: Intrinsic Activity as a fraction relative to the maximum activity determined for formoterol
T2 construct: Adherent H292 cells were removed from tissue culture flasks; endogenous in cells; host or cells: H292 cells
T2 sequence (P07550 whole entry): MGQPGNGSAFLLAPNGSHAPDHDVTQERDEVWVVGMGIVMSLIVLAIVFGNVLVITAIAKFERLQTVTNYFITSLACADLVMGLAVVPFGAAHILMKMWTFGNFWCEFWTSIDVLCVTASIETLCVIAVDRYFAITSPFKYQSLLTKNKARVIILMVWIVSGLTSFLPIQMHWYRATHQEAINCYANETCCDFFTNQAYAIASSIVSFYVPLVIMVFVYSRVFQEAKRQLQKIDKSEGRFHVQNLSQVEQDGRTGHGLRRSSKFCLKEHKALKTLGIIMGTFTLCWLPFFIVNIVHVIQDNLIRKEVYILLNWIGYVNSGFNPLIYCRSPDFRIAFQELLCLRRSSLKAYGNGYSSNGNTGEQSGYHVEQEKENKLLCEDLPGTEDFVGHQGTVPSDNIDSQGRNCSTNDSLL
Method in brief: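 H292 cells pretreated 10 min with rolipram (300 μM final), then exposed to agonist 60 min at room temperature in HEPES-buffered HBSS, 1.6% DMSO final. Lysate cAMP quantified by AlphaScreen against a cAMP standard curve; four-parameter fit gives pEC50 and intrinsic activity relative to formoterol maximum.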

Compound | IC50 [1] | EC50 (Adrenergic β2) | β2 Int Act (Adrenergic β2)
O=C(CCNCCc1ccc2c(c1)OCCO2)N(CCNCCc1ccc(O)c2[nH]c(=O)sc12)C1CCCCCC1 [Example 88, N-Cycloheptyl-N^3-[2-(2,3-dihydro-1,4-benzodioxin-6-yl)ethyl]-N^1-(2-{[2-(4-hydroxy-2-oxo-2,3-dihydro-1,3-benzothiazol-7-yl)ethyl]amino}ethyl)-β-alaninamide bis-trifluoroacetic acid salt] | 6.31 µM | 0.0251 µM | 0.37
O=C(CCNCCc1ccc(O)c2[nH]c(=O)sc12)N(CCNCCc1ccc(O)c2[nH]c(=O)sc12)C1CCCCCC1 [Example 87, bis-trifluoroacetic acid salt] | 0.794 µM | 0.00316 µM | 0.72
COc1ccc(CCNCCC(=O)N(CCNCCc2ccc(O)c3[nH]c(=O)sc23)C2CCCCCC2)cc1OC [Example 86, N^1-Cycloheptyl-N^3-[2-(3,4-dimethoxyphenyl)ethyl]-N^1-(2-{[2-(4-hydroxy-2-oxo-2,3-dihydro-1,3-benzothiazol-7-yl)ethyl]amino}ethyl)-β-alaninamide bis-trifluoroacetic acid salt] | 2.51 µM | 0.0398 µM | 0.43
CC1(C)CCC(N(CCNCCc2ccc(O)c3[nH]c(=O)sc23)C(=O)CCNCCc2cccc(O)c2)CC1 [Example 91, N^1-(4,4-Dimethylcyclohexyl)-N^1-(2-{[2-(4-hydroxy-2-oxo-2,3-dihydro-1,3-benzothiazol-7-yl)ethyl]amino}ethyl)-N^3-[2-(3-hydroxyphenyl)ethyl]-β-alaninamide bis-trifluoroacetic acid salt] | 3.98 µM | 0.00398 µM | 0.75

Results, then the compound that gave them:

IC50 [1] | EC50 (Adrenergic β2) | β2 Int Act (Adrenergic β2) | Compound
0.2 µM | 0.00398 µM | 0.71 | O=C(CCNCCc1cccc(O)c1)N(CCNCCc1ccc(O)c2[nH]c(=O)sc12)C1CCCCCCC1 [Example 90, N^1-Cyclooctyl-N^1-(2-{[2-(4-hydroxy-2-oxo-2,3-dihydro-1,3-benzothiazol-7-yl)ethyl]amino}ethyl)-N^3-[2-(3-hydroxyphenyl)ethyl]-β-alaninamide bis-trifluoroacetic acid salt]
2.51 µM | 0.001 µM | 0.79 | O=C(CCNCCc1ccccc1)N(CCNCCc1ccc(O)c2[nH]c(=O)sc12)C1CCC(F)(F)CC1 [Example 4, N-(4,4-Difluorocyclohexyl)-N-(2-{[2-(4-hydroxy-2-oxo-2,3-dihydro-1,3-benzothiazol-7-yl)ethyl]amino}ethyl)-N^3-(2-phenylethyl)-β-alaninamide bis-trifluoroacetic acid salt]
2.51 µM | 0.00631 µM | 0.65 | Cc1cccc(CCNCCC(=O)N(CCNCCc2ccc(O)c3[nH]c(=O)sc23)C2CCCCCC2)c1 [Example 85, N^1-Cycloheptyl-N^1-(2-{[2-(4-hydroxy-2-oxo-2,3-dihydro-1,3-benzothiazol-7-yl)ethyl]amino}ethyl)-N^3-[2-(3-methylphenyl)ethyl]-β-alaninamide bis-trifluoroacetic acid salt]
3.16 µM | 0.00126 µM | 0.9 | O=C(CCNCCc1ccc(O)c(Cl)c1)N(CCNCCc1ccc(O)c2[nH]c(=O)sc12)C1CCCCC1 [Example 89, N^3-[2-(3-chloro-4-hydroxyphenyl)ethyl]-N^1-cyclohexyl-N^1-(2-{[2-(4-hydroxy-2-oxo-2,3-dihydro-1,3-benzothiazol-7-yl)ethyl]amino}ethyl)-β-alaninamide bis-trifluoroacetic acid salt]
5.01 µM | 0.00251 µM | 0.83 | O=C(CCNCCc1ccccc1)N(CCNCCc1ccc(O)c2[nH]c(=O)sc12)C1CCCCC1 [Example 5, N-Cyclohexyl-N-(2-{[2-(4-hydroxy-2-oxo-2,3-dihydro-1,3-benzothiazol-7-yl)ethyl]amino}ethyl)-N^3-(2-phenylethyl)-β-alaninamide bis-trifluoroacetic acid salt]
